Test results published in paper PMC2723102, “The interactome of the amyloid β precursor protein family members is shaped by phosphorylation of their intracellular domains” (Molecular Neurodegeneration, 2009).
pKd: −log10 of the molar value.

Tests used:
Format in all cases: binding
GST-Grb2 = molecular target: T1, GST-Grb2 (Homo sapiens, UniProt P62993); test: BIAcore surface plasmon resonance, GST-Grb2; conditions: SPR, BIAcore 3000, strep-tag peptide amine coupled to CM-5 chip (4500–7500 RU), analyte GST-Grb2
T1 construct: All these targets analyzed contain either an SH2 or a PTB domain fused to GST; made in house; host or cells: bacterial cultures
Source text: (§1) Binding of GST and GST-Grb2, NUMB p71, and X11β domains to strep-tag AID peptide or different phosphorylation forms was monitored by surface plasmon resonance (SPR) on a BIAcore 3000 machine (BIAcore, Neuchâtel, Switzerland). The strep-tag peptide and different phosphorylation forms of AID peptides were covalently amine coupled to a CM-5 sensor chip by use of the amine covalent coupling. An immobilization level of 4500–7500 resonance units was obtained. A nonderivatized flowcell serves as a reference surface. Interactions between GST and GST-Grb2, NUMB p71, and X11β to strep-tag peptides were determined by the change in signal measured in RU.

GST-NUMB-p71 = molecular target: T2, GST-NUMB-p71 (Homo sapiens, UniProt P49757); test: BIAcore surface plasmon resonance, GST-NUMB-p71; conditions: SPR, BIAcore 3000, strep-tag peptide amine coupled to CM-5 chip (4500–7500 RU), analyte GST-NUMB-p71
T2 construct: All these targets analyzed contain either an SH2 or a PTB domain fused to GST; made in house; host or cells: bacterial cultures
T2 sequence (P49757 33-182 isoform P49757-3): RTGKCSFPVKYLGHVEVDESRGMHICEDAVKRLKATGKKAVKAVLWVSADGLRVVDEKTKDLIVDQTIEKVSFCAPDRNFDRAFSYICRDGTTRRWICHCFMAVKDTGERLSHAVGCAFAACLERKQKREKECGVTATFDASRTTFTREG
Source text: as §1

GST-X11β = molecular target: T3, GST-X11β (Homo sapiens, UniProt Q99767); test: BIAcore surface plasmon resonance, GST-X11β; conditions: SPR, BIAcore 3000, strep-tag peptide amine coupled to CM-5 chip (4500–7500 RU), analyte GST-X11β
T3 construct: All these targets analyzed contain either an SH2 or a PTB domain fused to GST; made in house; host or cells: bacterial cultures
T3 sequence (Q99767 368-555 limits assumed): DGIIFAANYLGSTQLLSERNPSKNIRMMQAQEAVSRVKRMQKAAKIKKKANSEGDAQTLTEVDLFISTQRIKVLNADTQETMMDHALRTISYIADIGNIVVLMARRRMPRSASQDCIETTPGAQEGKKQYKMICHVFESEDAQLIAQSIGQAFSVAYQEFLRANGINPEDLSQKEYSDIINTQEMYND
Source text: as §1

T1 sequence (P62993 60-152 limits assumed): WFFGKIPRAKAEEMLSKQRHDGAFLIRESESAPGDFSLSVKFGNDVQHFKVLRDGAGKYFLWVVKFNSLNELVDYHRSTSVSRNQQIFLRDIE

Row | SMILES | pKd (GST-Grb2) | pKd (GST-NUMB-p71) | pKd (GST-X11β)
1 | CC[C@H](C)[C@H](NC(=O)[C@H](CO)NC(=O)[C@@H](NC(=O)[C@H](Cc1ccc(O)cc1)NC(=O)[C@H](CCC(N)=O)NC(=O)[C@H](CCCCN)NC(=O)[C@H](CCCCN)NC(=O)[C@H](CCCCN)NC(=O)[C@H](CC(C)C)NC(=O)[C@H](CCSC)NC(=O)[C@@H](N)C(C)C)[C@@H](C)O)C(=O)N[C@@H](Cc1c[nH]cn1)C(=O)N[C@@H](Cc1c[nH]cn1)C(=O)NCC(=O)N[C@H](C(=O)N[C@H](C(=O)N[C@@H](CCC(=O)O)C(=O)N[C@H](C(=O)N[C@@H](CC(=O)O)C(=O)N[C@@H](C)C(=O)N[C@@H](C)C(=O)N[C@H](C(=O)N[C@H](C(=O)N1CCC[C@H]1C(=O)N[C@@H](CCC(=O)O)C(=O)N[C@@H](CCC(=O)O)C(=O)N[C@@H](CCCNC(=N)N)C(=O)N[C@@H](Cc1c[nH]cn1)C(=O)N[C@@H](CC(C)C)C(=O)N[C@@H](CO)C(=O)N[C@@H](CCCCN)C(=O)N[C@@H](CCSC)C(=O)N[C@@H](CCC(N)=O)C(=O)N[C@@H](CCC(N)=O)C(=O)N[C@@H](CC(N)=O)C(=O)NCC(=O)N[C@@H](Cc1ccc(OP(=O)(O)O)cc1)C(=O)N[C@@H](CCC(=O)O)C(=O)N[C@@H](CC(N)=O)C(=O)N1CCC[C@H]1C(=O)N[C@H](C(=O)N[C@@H](Cc1ccc(O)cc1)C(=O)N[C@@H](CCCCN)C(=O)N[C@@H](Cc1ccccc1)C(=O)N[C@@H](Cc1ccccc1)C(=O)N[C@@H](CCC(=O)O)C(=O)N[C@@H](CCC(N)=O)C(=O)N[C@@H](CCSC)C(=O)N[C@@H](CCC(N)=O)C(=O)N[C@@H](CC(N)=O)C(=O)O)[C@@H](C)O)[C@@H](C)O)C(C)C)C(C)C)C(C)C)C(C)C [AIDpY] | 8.59 | 6.00 | 
2 | CC[C@H](C)[C@H](NC(=O)[C@H](CO)NC(=O)[C@@H](NC(=O)[C@H](Cc1ccc(O)cc1)NC(=O)[C@H](CCC(N)=O)NC(=O)[C@H](CCCCN)NC(=O)[C@H](CCCCN)NC(=O)[C@H](CCCCN)NC(=O)[C@H](CC(C)C)NC(=O)[C@H](CCSC)NC(=O)[C@@H](N)C(C)C)[C@@H](C)O)C(=O)N[C@@H](Cc1c[nH]cn1)C(=O)N[C@@H](Cc1c[nH]cn1)C(=O)NCC(=O)N[C@H](C(=O)N[C@H](C(=O)N[C@@H](CCC(=O)O)C(=O)N[C@H](C(=O)N[C@@H](CC(=O)O)C(=O)N[C@@H](C)C(=O)N[C@@H](C)C(=O)N[C@H](C(=O)N[C@H](C(=O)N1CCC[C@H]1C(=O)N[C@@H](CCC(=O)O)C(=O)N[C@@H](CCC(=O)O)C(=O)N[C@@H](CCCNC(=N)N)C(=O)N[C@@H](Cc1c[nH]cn1)C(=O)N[C@@H](CC(C)C)C(=O)N[C@@H](CO)C(=O)N[C@@H](CCCCN)C(=O)N[C@@H](CCSC)C(=O)N[C@@H](CCC(N)=O)C(=O)N[C@@H](CCC(N)=O)C(=O)N[C@@H](CC(N)=O)C(=O)NCC(=O)N[C@@H](Cc1ccc(OP(=O)(O)O)cc1)C(=O)N[C@@H](CCC(=O)O)C(=O)N[C@@H](CC(N)=O)C(=O)N1CCC[C@H]1C(=O)N[C@H](C(=O)N[C@@H](Cc1ccc(O)cc1)C(=O)N[C@@H](CCCCN)C(=O)N[C@@H](Cc1ccccc1)C(=O)N[C@@H](Cc1ccccc1)C(=O)N[C@@H](CCC(=O)O)C(=O)N[C@@H](CCC(N)=O)C(=O)N[C@@H](CCSC)C(=O)N[C@@H](CCC(N)=O)C(=O)N[C@@H](CC(N)=O)C(=O)O)[C@@H](C)O)[C@@H](C)OP(=O)(O)O)C(C)C)C(C)C)C(C)C)C(C)C [AIDpTpY] | 9.38 |  | 7.88
